Data from the supplement of paper PMC11451515.

Tested on: P12-Ichikawa
Experiment: cell viability relative to DMSO control; higher = less cytotoxic
Conditions: 48 h
Summary of the method: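 NOMO1 or SEM (500 cells/well) or P12-Ichikawa (1000 cells/well) leukemia cells were adapted for at least four passages in each medium. They were seeded in 1536-well plates (5 μl) and pin-dosed with library compounds in DMSO over an 11-point threefold series, 47 μM to 0.79 nM. CellTiter-Glo One luminescence was read after 48 h at 37°C. Viability is the per-plate percentage relative to DMSO wells, with cell-free wells as background.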

[1] = HPLM + 10% dialyzed FBS, 0.000781 µM
[2] = HPLM + 10% dialyzed FBS, 0.00234 µM
[3] = HPLM + 10% dialyzed FBS, 0.00702 µM
[4] = HPLM + 10% dialyzed FBS, 0.0211 µM
[5] = HPLM + 10% dialyzed FBS, 0.0632 µM
[6] = HPLM + 10% dialyzed FBS, 0.19 µM
[7] = HPLM + 10% dialyzed FBS, 0.569 µM
[8] = HPLM + 10% dialyzed FBS, 1.71 µM
[9] = HPLM + 10% dialyzed FBS, 5.12 µM
[10] = HPLM + 10% dialyzed FBS, 15.4 µM
[11] = HPLM + 10% dialyzed FBS, 46.1 µM
[12] = RPMI 5 mM glucose + 10% FBS, 0.000781 µM
[13] = RPMI 5 mM glucose + 10% FBS, 0.00234 µM
[14] = RPMI 5 mM glucose + 10% FBS, 0.00702 µM
[15] = RPMI 5 mM glucose + 10% FBS, 0.0211 µM
[16] = RPMI 5 mM glucose + 10% FBS, 0.0632 µM
[17] = RPMI 5 mM glucose + 10% FBS, 0.19 µM
[18] = RPMI 5 mM glucose + 10% FBS, 0.569 µM
[19] = RPMI 5 mM glucose + 10% FBS, 1.71 µM
[20] = RPMI 5 mM glucose + 10% FBS, 5.12 µM
[21] = RPMI 5 mM glucose + 10% FBS, 15.4 µM
[22] = RPMI 5 mM glucose + 10% FBS, 46.1 µM
[23] = RPMI 5 mM glucose + 10% dialyzed FBS, 0.000781 µM
[24] = RPMI 5 mM glucose + 10% dialyzed FBS, 0.00234 µM
[25] = RPMI 5 mM glucose + 10% dialyzed FBS, 0.00702 µM
[26] = RPMI 5 mM glucose + 10% dialyzed FBS, 0.0211 µM
[27] = RPMI 5 mM glucose + 10% dialyzed FBS, 0.0632 µM
[28] = RPMI 5 mM glucose + 10% dialyzed FBS, 0.19 µM
[29] = RPMI 5 mM glucose + 10% dialyzed FBS, 0.569 µM
[30] = RPMI 5 mM glucose + 10% dialyzed FBS, 1.71 µM
[31] = RPMI 5 mM glucose + 10% dialyzed FBS, 5.12 µM
[32] = RPMI 5 mM glucose + 10% dialyzed FBS, 15.4 µM
[33] = RPMI 5 mM glucose + 10% dialyzed FBS, 46.1 µM

Structure (SMILES) | cell viability [1] [%] | cell viability [2] [%] | cell viability [3] [%] | cell viability [4] [%] | cell viability [5] [%] | cell viability [6] [%] | cell viability [7] [%] | cell viability [8] [%] | cell viability [9] [%] | cell viability [10] [%] | cell viability [11] [%] | cell viability [12] [%] | cell viability [13] [%] | cell viability [14] [%] | cell viability [15] [%] | cell viability [16] [%] | cell viability [17] [%] | cell viability [18] [%] | cell viability [19] [%] | cell viability [20] [%] | cell viability [21] [%] | cell viability [22] [%] | cell viability [23] [%] | cell viability [24] [%] | cell viability [25] [%] | cell viability [26] [%] | cell viability [27] [%] | cell viability [28] [%] | cell viability [29] [%] | cell viability [30] [%] | cell viability [31] [%] | cell viability [32] [%] | cell viability [33] [%]
COC1=C(OCCCN2CCOCC2)C=CC\3=C1/N=C(/NC(=O)C4=CN=C(N)N=C4)N5CC/N=C35 | 110 | 97.6 | 99.5 | 100 | 96 | 85.8 | 78.2 | 73.7 | 70.1 | 60.4 | 60.8 | 87.2 | 95.4 | 90.2 | 91.2 | 86.9 | 74.7 | 62.5 | 56.8 | 56.3 | 47.1 | 42 | 87.8 | 95.3 | 98.3 | 99.1 | 87.3 | 82.5 | 67.4 | 62.6 | 58.7 | 49.1 | 45.8
Nc1ccc([S+](=O)([O-])Nc2ccnn2-c2ccccc2)cc1 | 105 | 103 | 103 | 109 | 111 | 102 | 105 | 106 | 105 | 110 | 107 | 95.9 | 101 | 98.3 | 96 | 108 | 115 | 108 | 106 | 100 | 109 | 107 | 86.1 | 98.7 | 97.7 | 92.9 | 105 | 99 | 98.2 | 112 | 103 | 106 | 96.7
CC(=O)Oc1ccccc1C(=O)Nc1ncc([N+](=O)[O-])s1 | 102 | 103 | 106 | 107 | 104 | 104 | 110 | 109 | 95.9 | 97.3 | 36.5 | 92.8 | 102 | 95.5 | 98.3 | 96 | 104 | 98.5 | 98.4 | 79.9 | 83.5 | 75.6 | 95.7 | 97.5 | 100 | 95.6 | 94.2 | 95.4 | 96.3 | 93.5 | 82 | 85.2 | 79.9
COC(=O)C\1=C(C)\N\C(=C(/C1C2=CC=CC3=NON=C23)C(=O)OC(C)C)C (configuration not stated) | 100 | 102 | 99.4 | 95 | 102 | 93.8 | 96.9 | 96.1 | 88 | 90.2 | 87.7 | 96.1 | 101 | 100 | 94.8 | 104 | 98.8 | 93.1 | 94.2 | 87 | 86.9 | 87.4 | 97.6 | 94.6 | 88.5 | 95.2 | 101 | 90.4 | 88.7 | 87.2 | 93.4 | 86.6 | 86.1
CCCCCNC(=O)N1CCC(CN(Cc2ccc(Cl)cc2)Cc2ccc([N+](=O)[O-])s2)C1 (configuration not stated) | 113 | 127 | 119 | 121 | 111 | 114 | 111 | 110 | 103 | 96.9 | 85.6 | 108 | 116 | 113 | 107 | 114 | 100 | 107 | 97 | 103 | 90.4 | 74.2 | 123 | 104 | 104 | 117 | 111 | 113 | 109 | 95.2 | 101 | 94.3 | 78.9
OCC(O)C(O)C(O)CO (configuration not stated) | 95.6 | 102 | 97.8 | 99.8 | 98.4 | 94.3 | 103 | 92.3 | 88.1 | 88.7 | 87.7 | 83.8 | 96 | 95.3 | 95.4 | 91.1 | 92.3 | 99 | 87.1 | 86.3 | 77.8 | 89.1 | 87.2 | 89.9 | 95.3 | 89.8 | 97.2 | 89.9 | 93.7 | 85.4 | 88.3 | 79.2 | 91.8
CC12CC3CC(C)(C1)CC(N)(C3)C2 | 122 | 119 | 115 | 115 | 129 | 130 | 124 | 122 | 117 | 89.8 | 58.9 | 109 | 118 | 117 | 120 | 138 | 122 | 131 | 130 | 123 | 112 | 78.4 | 110 | 115 | 116 | 117 | 129 | 117 | 125 | 127 | 115 | 109 | 89.7
COC1=CC=C(C(=C1)OC(C)C)C/2=N/[C@@H]([C@@H](N2C(=O)N3CCNC(=O)C3)C4=CC=C(Cl)C=C4)C5=CC=C(Cl)C=C5 | 108 | 113 | 115 | 108 | 109 | 111 | 108 | 102 | 76 | 37.1 | 12.1 | 122 | 125 | 127 | 119 | 116 | 118 | 106 | 111 | 97.2 | 52 | 49.6 | 122 | 119 | 116 | 117 | 125 | 113 | 112 | 110 | 88.3 | 41.5 | 27.8
O=C(c1ccccc1)c1ccc2n1CCC2C(=O)O (configuration not stated) | 113 | 111 | 114 | 111 | 112 | 106 | 109 | 91.7 | 75.8 | 64.6 | 71.5 | 127 | 117 | 124 | 119 | 120 | 113 | 117 | 96.3 | 84.5 | 57.3 | 62.8 | 104 | 108 | 106 | 107 | 99.1 | 108 | 98.6 | 93.6 | 72.6 | 52.8 | 61.8
CCCCN(CCCC)CC(O)c1cc(Cl)cc2c1-c1ccc(Cl)cc1/C2=C/c1ccc(Cl)cc1 (configuration not stated) | 97.6 | 99.8 | 114 | 107 | 107 | 111 | 109 | 117 | 104 | 121 | 117 | 98.6 | 102 | 107 | 98 | 102 | 117 | 104 | 113 | 97.5 | 109 | 82.5 | 83.9 | 99.7 | 101 | 107 | 96.9 | 98.1 | 97.5 | 103 | 104 | 107 | 107
CN1\C=N/C2=CC=C(NC3=CC(=CC=C3C)NC(=O)C4=CC(=CC=C4)C(C)(C)C#N)C=C2C1=O | 97.1 | 96.9 | 101 | 97.8 | 101 | 94.6 | 87 | 87.4 | 68.5 | 69.3 | 63.2 | 90.4 | 98.7 | 99 | 95 | 96.7 | 93 | 83.6 | 81.3 | 59.6 | 58.4 | 44.4 | 97.5 | 104 | 94 | 102 | 99.5 | 98.7 | 93.3 | 84.8 | 73.4 | 64.1 | 48.1
COC(=O)c1ccc2c(c1)NC(=O)/C2=C(\Nc1ccc(N(C)C(=O)CN2CCN(C)CC2)cc1)c1ccccc1 | 105 | 109 | 102 | 101 | 92.6 | 101 | 102 | 102 | 98.6 | 95.9 | 96.9 | 106 | 102 | 96.1 | 86 | 101 | 104 | 101 | 94 | 102 | 97.3 | 89.3 | 102 | 104 | 104 | 90.2 | 101 | 99 | 95.6 | 93.4 | 99.4 | 86.2 | 93.5
O=C(O)c1cc(/N=N/c2ccc([S+](=O)([O-])Nc3ccccn3)cc2)ccc1O | 108 | 107 | 112 | 102 | 113 | 116 | 116 | 107 | 106 | 98.6 | 92.3 | 108 | 111 | 105 | 110 | 119 | 115 | 114 | 122 | 113 | 111 | 108 | 103 | 114 | 110 | 102 | 120 | 114 | 119 | 120 | 110 | 102 | 102
N[C@@H]1CONC1=O | 97.7 | 108 | 101 | 105 | 109 | 106 | 109 | 112 | 114 | 100 | 110 | 95.6 | 95.6 | 106 | 102 | 111 | 102 | 104 | 95.5 | 102 | 97.2 | 103 | 92.6 | 95.9 | 101 | 101 | 105 | 106 | 98.7 | 102 | 96.5 | 101 | 103
